Measured values taken from ChEMBL document CHEMBL3351248, “The discovery of potent, selective, and reversible inhibitors of the house dust mite peptidase allergen Der p 1: an innovative approach to the treatment of allergic asthma” (J Med Chem, 2014).
Active and inactive are the calls of the source. The calls are words filed in the database; no cut-off is given here.

Tests used:
[1] = Metabolic stability in rat NR8383 cells after 2 hrs by LC-MS-MS analysis; format: ADME, cell-based; conditions: nr8383, 2 h
[2] = Metabolic stability in rat L2 cells after 2 hrs by LC-MS-MS analysis; format: ADME, cell-based; conditions: l2, 2 h
Rattus norvegicus = experiment: Inhibition of house dust mites allergan-induced eosinophil recruitment in Brown Norway rat model at 25 to 35 ug/kg administered via intratracheal aerosolization 2 hrs prior to allergan challenge measured after 48 hrs by bronchoalveolar lavage method; format: functional, organism-based; conditions: Lung

Stability [1]	Stability [2]	Compound	inhibition (Rattus norvegicus)
Stable	Stable	CC(C)[C@H](NC(=O)[C@H](C)NC(=O)[C@H](Cc1ccccc1)NC(=O)c1ccccc1)C(=O)C(=O)NCC(=O)N1CCN(C)CC1	Active
Stable	Stable	CC(C)[C@H](NC(=O)[C@H](C)NC(=O)[C@@H](NC(=O)c1ccnc2ccccc12)C(C)(C)C)C(=O)C(=O)NCc1ccccc1	Active
Stable	Stable	CC(C)[C@H](NC(=O)[C@H](C)NC(=O)[C@H](Cc1ccccc1)NC(=O)c1ccccc1)C(=O)C(=O)NCC(=O)N1CCOCC1	Active
Stable	Stable	CC(C)[C@H](NC(=O)[C@H](C)NC(=O)[C@@H](NC(=O)c1ccccc1)C(C)(C)C)C(=O)C(=O)NCc1ccccc1	

The remaining lines, values behind:

Compound	Stability [1]	Stability [2]	inhibition (Rattus norvegicus)
CC(C)[C@H](NC(=O)[C@H](C)NC(=O)[C@@H](NC(=O)C1CC[N+](C)(C)CC1)C(C)(C)C)C(=O)C(=O)NCc1ccccc1.O=C[O-]	Stable	Stable	
CC(C)[C@H](NC(=O)[C@H](C)NC(=O)[C@H](Cc1ccccc1)NC(=O)c1cccc2ccccc12)C(=O)C(=O)NCC(=O)N1CCN(C)CC1	Stable	Stable	Active
CC(C)[C@H](NC(=O)[C@H](C)NC(=O)[C@H](Cc1ccccc1)NC(=O)c1ccccc1)C(=O)C(=O)NCC(=O)N1CC[N+](C)(C)CC1.O=C[O-]	Stable	Stable	
CC(C)[C@H](NC(=O)[C@H](C)NC(=O)[C@@H](NC(=O)c1ccncc1)C(C)(C)C)C(=O)C(=O)NC1CCCCC1	Stable	Stable	Active
